Data on 33 compounds can be found in patent US8609836B2, “4-aryl-2-anilino-pyrimidines” (Janssen Pharmaceutica NV, priority 2008, dated 2013).

The structures appear in SMILES notation.

The target in assay [1] is CDK1/CyclinB (h) (Homo sapiens, UniProt P06493). The assay is described as follows: CDK1/CyclinB human kinase inhibition, Invitrogen's FRET assay (Z'lyte). As to conditions: read-out: CDK1 pIC50 (converted). The assay is classed as biochemical. Put shortly:
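Read-out is the 460 nm/538 nm emission ratio (390 nm excitation) after a 60 min protease development step. Before that, 10 μM ATP and 2 μM Z'lyte Ser/Thr peptide 12 react 60 min at room temperature with 0.2 μg/ml human CDK1/CyclinB in Hepes pH 7.5 containing MgCl2, EGTA and Brij-35.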

Assay [2] has as its target PLK1 T210D (h) (Homo sapiens, UniProt P53350, T210D). Nature of the assay: PLK1 human kinase inhibition, SPA. As to conditions: read-out: PLK1 pIC50 (converted). The format is biochemical. Put shortly:
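Kinase incubated 40 min at room temperature with 0.1 μM ATP (2 nM [γ-33P]ATP tracer), 2 μM biotinylated peptide, pH 8.0 Hepes buffer with 2 mM MnCl2 and 1 mM DTT; enzyme at 0.125 ng/ml. Stopped with EDTA; 33P-peptide bound to streptavidin scintillant beads and imaged.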

The subject of assay [3] is H1299. The assay is described as follows: Cellular proliferation assay (Alamar blue), H1299. As to conditions: Homo sapiens, NCI-H1299; 10% FCS; 72 hours with compound; Alamar blue 4 h. The assay is classed as cell-based. Summed up: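 This proliferation assay on NCI-H1299 cells used an initial 24-hour compound-free incubation after seeding, followed by 72 hours of compound treatment with 10% FCS serum at 37° C. and 5% (v/v) CO2. Viable cells were quantified by a 4 h Alamar blue incubation and fluorescent plate reading at 544 nm/590 nm, and effects were expressed relative to control cells.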
(In general: Alamar Blue is a resazurin reagent that responds to reducing activity.)

The subject of assay [4] is U87-MG. The assay is described as follows: Cellular proliferation assay (Alamar blue), U87-MG. The format is cell-based. As to conditions: Homo sapiens, U-87 MG; 10% FCS; 72 hours with compound; Alamar blue 6 h; read-out: U87-MG (cellular proliferation assay, Table 4) (converted). Put shortly: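 After a 24 h compound-free attachment period, cells in 10% FCS medium are treated for 72 h at 37° C. Resazurin conversion is then quantified by fluorescence, with dye incubation lasting 4 h for HCT-116, 6 h for U87-MG and 24 h for A2780 or MDA-MB-231.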

CDK1/CyclinB (h), sequence (P06493 whole entry): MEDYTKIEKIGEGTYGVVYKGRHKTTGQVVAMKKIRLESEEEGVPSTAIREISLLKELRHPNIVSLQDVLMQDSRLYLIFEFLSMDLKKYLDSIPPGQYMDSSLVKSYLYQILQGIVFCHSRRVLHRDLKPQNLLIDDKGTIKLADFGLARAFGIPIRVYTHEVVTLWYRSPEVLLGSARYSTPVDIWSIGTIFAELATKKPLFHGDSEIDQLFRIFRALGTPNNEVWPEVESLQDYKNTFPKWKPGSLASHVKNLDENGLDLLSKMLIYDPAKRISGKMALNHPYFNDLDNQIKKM
CDK1/CyclinB (h), sequence (P14635 whole entry partner): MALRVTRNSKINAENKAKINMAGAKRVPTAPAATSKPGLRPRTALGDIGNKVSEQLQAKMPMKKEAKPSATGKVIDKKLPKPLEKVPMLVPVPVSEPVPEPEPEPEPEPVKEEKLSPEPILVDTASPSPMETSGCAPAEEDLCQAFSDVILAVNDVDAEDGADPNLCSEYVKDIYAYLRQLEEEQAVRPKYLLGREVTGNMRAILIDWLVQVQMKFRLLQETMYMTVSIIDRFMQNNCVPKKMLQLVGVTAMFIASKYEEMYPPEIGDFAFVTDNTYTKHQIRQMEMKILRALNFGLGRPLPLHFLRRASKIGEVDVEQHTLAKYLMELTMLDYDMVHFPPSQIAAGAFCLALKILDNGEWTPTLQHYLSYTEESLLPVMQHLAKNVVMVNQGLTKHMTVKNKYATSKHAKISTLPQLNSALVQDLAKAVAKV
PLK1 T210D (h), sequence (P53350 whole entry T210D): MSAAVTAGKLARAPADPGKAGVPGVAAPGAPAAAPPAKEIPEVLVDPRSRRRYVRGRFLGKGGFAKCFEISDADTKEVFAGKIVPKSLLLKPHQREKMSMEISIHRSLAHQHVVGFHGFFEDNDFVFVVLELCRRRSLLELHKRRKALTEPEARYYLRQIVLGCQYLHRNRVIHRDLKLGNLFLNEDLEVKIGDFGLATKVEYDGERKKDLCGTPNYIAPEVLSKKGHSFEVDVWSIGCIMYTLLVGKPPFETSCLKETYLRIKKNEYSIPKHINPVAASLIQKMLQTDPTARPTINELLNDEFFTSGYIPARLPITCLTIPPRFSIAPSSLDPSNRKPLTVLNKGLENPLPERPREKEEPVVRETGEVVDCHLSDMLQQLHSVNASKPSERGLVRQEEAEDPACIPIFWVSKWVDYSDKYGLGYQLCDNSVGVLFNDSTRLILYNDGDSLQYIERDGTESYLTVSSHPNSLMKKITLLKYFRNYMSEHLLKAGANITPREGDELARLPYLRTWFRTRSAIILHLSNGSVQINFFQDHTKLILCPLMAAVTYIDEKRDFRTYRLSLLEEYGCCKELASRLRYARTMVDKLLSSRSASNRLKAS

For the compound `CN1CCNC(=O)[C@@H]2CCCN2Cc2cc(Br)cc(c2)Nc2nccc(n2)-c2ccc(cc2)C1` [Compound 155], the IC50 in assay [1], in assay [2], in assay [3] and in assay [4] was above 10 µM in each case.
Take `O=C1NCc2cccc(c2)-c2ccnc(n2)Nc2cc(CNC3CCOCC3)cc(c2)CN2CCC[C@@H]12` [Compound 29]: the IC50 in assay [1] is 0.676 µM; in assay [2] it was above 10 µM; in assay [3], 3.8 µM; in assay [4], 0.457 µM.
Take `COc1ccc2cc1CN(C)CCNC(=O)C1CCN(CC1)Cc1cc(cc(N3CCOCC3)c1)Nc1nccc-2n1` [Compound 77]: the IC50 in assay [1], in assay [2], in assay [3] and in assay [4] was above 10 µM in each case.
`O=C1CN2CCN(CC2)Cc2cc(ccc2N2CCOCC2)Nc2nccc(n2)-c2ccc(cc2)OCCN1` [Compound 9]: the IC50 in assay [1] is above 10 µM; in assay [2], above 10 µM; in assay [3] it was above 10 µM; in assay [4], 1.55 µM.
Take `O=C1NCCCc2cc(ccn2)-c2ccnc(n2)Nc2ccc(N3CCOCC3)c(c2)CN2CCCC12` (stereo not drawn) [Compound 48]: the IC50 in assay [1], in assay [2], in assay [3] and in assay [4] was above 10 µM throughout.
On to `CN1CCNC(=O)CN2CCN(CC2)Cc2cc(cc(N3CCOCC3)c2)Nc2nccc(n2)-c2ccc(cc2)C1` [Compound 135], for which the IC50 in assay [1] was above 10 µM; in assay [2], above 10 µM; in assay [3], above 10 µM; in assay [4], 9.77 µM.
Turning to `COc1ccc2cc1CN(C)CCCNC(=O)CN1CCN(CC1)Cc1cc(cc(NC(C)C)c1)Nc1nccc-2n1` [Compound 130], the IC50 was 7.76 µM in assay [1], above 10 µM in assay [2], above 10 µM in assay [3] and above 10 µM in assay [4].
Take `CN1CCCNC(=O)C2CCN(CC2)Cc2cccc(c2)Nc2nccc(n2)-c2ccc(cc2)C1` [Compound 78]: the IC50 was above 10 µM in assay [1], above 10 µM in assay [2], above 10 µM in assay [3] and 7.08 µM in assay [4].
With `O=C1NCc2cccc(c2)-c2ccnc(n2)Nc2ccc(N3CCOCC3)c(c2)CN2CCC[C@@H]12` [Compound 1], the IC50 in assay [1] was 4.17 µM; in assay [2] it was above 10 µM; in assay [3] it was 6.92 µM; in assay [4], 6.76 µM.
The matching figures for `CC(C)Nc1cc2cc(c1)Nc1nccc(n1)-c1ccc(cc1)CN(C)CCNC(=O)[C@@H]1CCCN1C2` [Compound 153]: 2.82 µM, above 10 µM, above 10 µM and 5.75 µM.
The matching figures for `O=C1NCCCOc2cccc(c2)-c2ccnc(n2)Nc2ccc(N3CCOCC3)c(c2)CN[C@H]1CO` [Compound 89]: above 10 µM, above 10 µM, above 10 µM and above 10 µM.
`COc1ccc2cc1CN(C)CCCNC(=O)[C@@H]1CCCN1Cc1cc(cc(N3CCOCC3)c1)Nc1nccc-2n1` [Compound 179]: the IC50 in assay [1], in assay [2], in assay [3] and in assay [4] was above 10 µM throughout.
Regarding `CC(C)Nc1cc2cc(c1)Nc1nccc(n1)-c1ccc(cc1)CN(C)CCNC(=O)C1CCN(CC1)C2` [Compound 61], the IC50 in assay [1] is above 10 µM; in assay [2], above 10 µM; in assay [3], above 10 µM; in assay [4], 5.62 µM.
Consider `COc1ccc2cc1CN1CCN(CC1)CC(=O)N(C)CCN(C)c1ccc(cn1)-c1ccnc(n1)N2` [Compound 14], for which the IC50 is above 3.02 µM in assay [1], above 10 µM in assay [2], above 10 µM in assay [3] and above 10 µM in assay [4].
Take `CN1CCNC(=O)C2CCN(CC2)Cc2cc(cc(N3CCOCC3)c2)Nc2nccc(n2)-c2ccc(cc2)C1` [Compound 68]: the IC50 is above 10 µM in assay [1], above 10 µM in assay [2], above 10 µM in assay [3] and 7.59 µM in assay [4].
`O=C1NCCCOc2ccc(cc2)-c2ccnc(n2)Nc2ccc(N3CCOCC3)c(c2)CN2CCC[C@@H]12` [Compound 7]: the IC50 in assay [1] is 3.47 µM; in assay [2] it was above 10 µM; in assay [3], above 10 µM; in assay [4], 4.37 µM.
Consider `O=C1NCCNCc2ccc(cc2)-c2ccnc(n2)Nc2ccc(N3CCOCC3)c(c2)CN[C@H]1CO` [Compound 115], for which the IC50 in assay [1], in assay [2], in assay [3] and in assay [4] was above 10 µM throughout.
For the compound `CN(C)Cc1cc2cc(c1)Nc1nccc(n1)-c1cccc(c1)CNC(=O)[C@@H]1CCCN1C2` [Compound 30], the IC50 in assay [1] is 0.269 µM; in assay [2] it was above 10 µM; in assay [3] it was 0.191 µM; in assay [4], 0.145 µM.
The matching figures for `COc1ccc2cc1CN(C)CCCNC(=O)[C@@H]1CCCN1Cc1cc(cc(NC(C)C)c1)Nc1nccc-2n1` [Compound 164]: above 10 µM, above 10 µM, above 10 µM and 2.09 µM.
The matching figures for `O=C1NCCOc2ccc(cc2)-c2ccnc(n2)Nc2ccc(N3CCOCC3)c(c2)CN2CCC1CC2` [Compound 6]: 0.195 µM, above 10 µM, 0.38 µM and 0.575 µM.
Consider `CN1CCCNC(=O)C2CCN(CC2)Cc2cc(cc(N3CCOCC3)c2)Nc2nccc(n2)-c2ccc(cc2)C1` [Compound 72], for which the IC50 is above 10 µM in assay [1], above 10 µM in assay [2], above 10 µM in assay [3] and 6.17 µM in assay [4].
On to `C[C@@H]1NCc2cc(ccc2N2CCOCC2)Nc2nccc(n2)-c2ccc(cc2)OCCCNC1=O` [Compound 5], for which the IC50 in assay [1], in assay [2], in assay [3] and in assay [4] was above 10 µM each time.
For `O=C1NCCNc2cc(ccn2)-c2ccnc(n2)Nc2ccc(N3CCOCC3)c(c2)CN2CCCC12` (stereo not drawn) [Compound 161], the IC50 in assay [1] was 5.13 µM; in assay [2], above 10 µM; in assay [3], 10 µM; in assay [4] it was above 10 µM.
On to `O=C1NCCNc2cc(ccn2)-c2ccnc(n2)Nc2ccc(N3CCOCC3)c(c2)CN2CCC1CC2` [Compound 84], for which the IC50 in assay [1] was above 10 µM; in assay [2], above 10 µM; in assay [3] it was above 10 µM; in assay [4], 9.33 µM.
With `COc1ccc2cc1CN(C)CCCNC(=O)C1CCN(CC1)Cc1cc(Br)cc(c1)Nc1nccc-2n1` [Compound 76], the IC50 is above 10 µM in assay [1], above 10 µM in assay [2], above 10 µM in assay [3] and 7.24 µM in assay [4].
Regarding `COc1ccc2cc1CN(C)CCCNC(=O)C1CCN(CC1)Cc1cc(cc(N3CCOCC3)c1)Nc1nccc-2n1` [Compound 80], the IC50 in assay [1], in assay [2], in assay [3] and in assay [4] was above 10 µM throughout.
As to `COc1ccc2cc1CN(C)CCCNC(=O)CN1CCN(CC1)Cc1cccc(c1)Nc1nccc-2n1` [Compound 146], the IC50 in assay [1], in assay [2], in assay [3] and in assay [4] was above 10 µM throughout.
On to `COc1ccc2cc1CNCCNC(=O)[C@@H]1CCCN1Cc1cc(ccc1N1CCOCC1)Nc1nccc-2n1` [Compound 178], for which the IC50 is above 10 µM in assay [1], above 10 µM in assay [2], above 10 µM in assay [3] and 8.91 µM in assay [4].
Turning to `COc1ccc2cc1CN(C)CCNC(=O)CN1CCN(CC1)Cc1cc(cc(NC(C)C)c1)Nc1nccc-2n1` [Compound 142], the IC50 is 8.51 µM in assay [1], above 10 µM in assay [2], above 10 µM in assay [3] and 5.62 µM in assay [4].
As for `COc1ccc2cc1CN(C)CCNC(=O)[C@@H]1CCCN1Cc1cccc(c1)Nc1nccc-2n1` [Compound 175], the IC50 in assay [1], in assay [2], in assay [3] and in assay [4] was above 10 µM throughout.
For `CN1CCCNC(=O)[C@@H]2CCCN2Cc2cc(cc(N3CCOCC3)c2)Nc2nccc(n2)-c2ccc(cc2)C1` [Compound 16], the IC50 in assay [1] is above 10 µM; in assay [2] it was above 10 µM; in assay [3] it was above 10 µM; in assay [4] it was 8.13 µM.
As to `COCCNCc1cc2cc(c1)Nc1nccc(n1)-c1cccc(c1)CNC(=O)[C@@H]1CCCN1C2` [Compound 33], the IC50 is 0.537 µM in assay [1], above 10 µM in assay [2], 1.1 µM in assay [3] and 0.0513 µM in assay [4].
With `CN(C)C(=O)c1ccc2cc1CN1CCC[C@H]1C(=O)NCc1cccc(c1)-c1ccnc(n1)N2` [Compound 24], the IC50 in assay [1] was above 10 µM; in assay [2], above 10 µM; in assay [3] it was above 10 µM; in assay [4] it was 4.27 µM.
